# Laboratory results reported in US8399452B2, “Dibenzo[b,f][1,4]oxazepin-11-yl-N-hydroxybenzamides as HDAC inhibitors” (Methylgene Inc., priority 2006, dated 2013).
# Molecular target: histone deacetylase (HDAC Enzyme)
# Assay: Inhibition of Histone Deacetylase Enzymatic Activity (Boc-Lys(Ac)-AMC, Fluor-de-Lys developer)
# Assay type: biochemical
# Conditions: Table 10; read-out: HDAC Inhibition (IC50 μM) HDAC Enzyme
# Experimental: The following protocol is used to assay the compounds of the invention.
# The mixture is pre-incubated for 5 minutes at room temperature. The reaction is started by bringing the temperature to 37° C. and adding 16 μl substrate. Total reaction volume is 50 μl.
# In the Tables 8, 9 and 10, A≦[…]<B≦0.1 μM; 0.1 μM<C≦1 μM; and 1 μM<D≦10 μM.
row,IC50 [µM],Structure (SMILES)
1,< 0.05,"O=C(NO)c1ccc(CN2c3ccccc3C=Cc3ccccc32)cc1 [(Z)-4-((5H-dibenzo[b,f]azepin-5-yl)methyl)-N-hydroxybenzamide]"
2,0.1 to 1,"O=C(CCCCN1c2ccccc2C=Cc2ccccc21)NO [(Z)-5-(5H-dibenzo[b,f]azepin-5-yl)-N-hydroxypentanamide]"
3,< 0.05,"O=C(CCCCCN1c2ccccc2C=Cc2ccccc21)NO [(Z)-6-(5H-dibenzo[b,f]azepin-5-yl)-N-hydroxyhexanamide]"
4,< 0.05,"O=C(CCCCCC(=O)N1c2ccccc2C=Cc2ccccc21)NO [(Z)-7-(5H-dibenzo[b,f]azepin-5-yl)-N-hydroxy-7-oxoheptanamide]"
5,< 0.05,"O=C(CCCCCCN1c2ccccc2C=Cc2ccccc21)NO [(Z)-7-(5H-dibenzo[b,f]azepin-5-yl)-N-hydroxyheptanamide]"
6,0.1 to 1,"O=C(CCCCCCC(=O)N1c2ccccc2C=Cc2ccccc21)NO [(Z)-8-(5H-dibenzo[b,f]azepin-5-yl)-N-hydroxy-8-oxooctanamide]"

row,Structure (SMILES),IC50 [µM]
1,"CN1C(=O)CN=C(c2ccccc2)c2ccc(CCC(=O)NO)cc21 [(Z)-N-hydroxy-3-(1-methyl-2-oxo-5-phenyl-2,3-dihydro-1H-benzo[e][1,4]diazepin-8-yl)propanamide]",0.1 to 1
2,"CN1C(=O)CN=C(c2ccc(C(=O)NO)cc2)c2ccccc21 [(Z)-N-hydroxy-4-(1-methyl-2-oxo-2,3-dihydro-1H-benzo[e][1,4]diazepin-5-yl)benzamide]",0.1 to 1

# Same assay, conditions: read-out: HDAC Inhibtion (IC50 μM) HDAC Enzyme
row,Structure (SMILES),IC50 [µM]
1,"O=C(NO)c1ccc(C2=Nc3ccccc3N(CC3CC3)c3ncccc32)cc1 [(Z)-4-(11-(cyclopropylmethyl)-11H-benzo[b]pyrido[2,3-e][1,4]diazepin-5-yl)-N-hydroxybenzamide]",1 to 10
2,"O=C(NO)c1ccc(C2=Nc3ccccc3N(C3CC3)c3ncccc32)cc1 [(Z)-4-(11-cyclopropyl-11H-benzo[b]pyrido[2,3-e][1,4]diazepin-5-yl)-N-hydroxybenzamide]",< 0.05
3,"CCN1c2ccccc2N=C(c2ccc(C(=O)NO)cc2)c2cccnc21 [(Z)-4-(11-ethyl-11H-benzo[b]pyrido[2,3-e][1,4]diazepin-5-yl)-N-hydroxybenzamide]",< 0.05
4,"O=C(NO)c1ccc(C2=Nc3ccccc3Oc3ncccc32)cc1 [(Z)-4-(benzo[b]pyrido[3,2-f][1,4]oxazepin-5-yl)-N-hydroxybenzamide]",0.05 to 0.1
5,"O=C(NO)c1ccc(C2=Nc3ccccc3Oc3cnccc32)cc1 [(Z)-4-(benzo[b]pyrido[4,3-f][1,4]oxazepin-5-yl)-N-hydroxybenzamide]",0.1 to 1
6,"O=C(NO)c1ccc(C2=Nc3cccnc3Oc3ccccc32)cc1 [(Z)-4-(benzo[f]pyrido[2,3-b][1,4]oxazepin-6-yl)-N-hydroxybenzamide]",< 0.05
7,"O=C(NO)c1ccc(C2=Nc3ccsc3Oc3ccccc32)cc1 [(Z)-4-(benzo[f]thieno[2,3-b][1,4]oxazepin-5-yl)-N-hydroxybenzamide]",0.1 to 1
8,"O=C(NO)c1ccc(C2=Nc3ccccc3Oc3ccccc32)cc1F [(Z)-4-(dibenzo[b,f][1,4]oxazepin-11-yl)-2-fluoro-N-hydroxybenzamide]",0.1 to 1
9,"O=C(NO)c1ccc(C2=Nc3ccccc3Sc3ccccc32)cc1 [(Z)-4-(dibenzo[b,f][1,4]thiazepin-11-yl)-N-hydroxybenzamide]",0.1 to 1
10,"O=C(NO)c1ccc(C2=Nc3ccccc3Oc3c[n+]([O-])ccc32)cc1 [(Z)-5-(4-(hydroxycarbamoyl)phenyl)benzo[b]pyrido[4,3-f][1,4]oxazepine 2-oxide]",0.1 to 1
11,"COc1cccc2c1C(c1ccc(C(=O)NO)cc1)=Nc1ccccc1O2 [(Z)-N-hydroxy-4-(1-methoxydibenzo[b,f][1,4]oxazepin-11-yl)benzamide]",0.1 to 1
12,"O=C(NO)c1ccc(C2=Nc3ccccc3Oc3cc(N4CCOCC4)ccc32)cc1 [(Z)-N-hydroxy-4-(3-morpholinodibenzo[b,f][1,4]oxazepin-11-yl)benzamide]",0.1 to 1
13,"COCCOc1cccc2c1Oc1ccccc1N=C2c1ccc(C(=O)NO)cc1 [(Z)-N-hydroxy-4-(4-(2-methoxyethoxy)dibenzo[b,f][1,4]oxazepin-11-yl)benzamide]",< 0.05
14,"O=C(NO)c1ccc(C2=Nc3ccccc3Oc3c(OCCN4CCOCC4)cccc32)cc1 [(Z)-N-hydroxy-4-(4-(2-morpholinoethoxy)dibenzo[b,f][1,4]oxazepin-11-yl)benzamide]",< 0.05
15,"C[S+]([O-])c1cccc2c1Oc1ccccc1N=C2c1ccc(C(=O)NO)cc1 (stereo not shown) [(Z)-N-hydroxy-4-(4-(methylsulfinyl)dibenzo[b,f][1,4]oxazepin-11-yl)benzamide]",0.05 to 0.1
16,"CS(=O)(=O)c1cccc2c1Oc1ccccc1N=C2c1ccc(C(=O)NO)cc1 [(Z)-N-hydroxy-4-(4-(methylsulfonyl)dibenzo[b,f][1,4]oxazepin-11-yl)benzamide]",< 0.05
17,"CSc1cccc2c1Oc1ccccc1N=C2c1ccc(C(=O)NO)cc1 [(Z)-N-hydroxy-4-(4-(methylthio)dibenzo[b,f][1,4]oxazepin-11-yl)benzamide]",< 0.05
18,"O=C(NO)c1ccc(C2=Nc3ccccc3Oc3c(O)cccc32)cc1 [(Z)-N-hydroxy-4-(4-hydroxydibenzo[b,f][1,4]oxazepin-11-yl)benzamide]",0.05 to 0.1
19,"COc1cccc2c1Oc1ccccc1N=C2c1ccc(C(=O)NO)cc1 [(Z)-N-hydroxy-4-(4-methoxydibenzo[b,f][1,4]oxazepin-11-yl)benzamide]",0.05 to 0.1
20,"Cc1cccc2c1Oc1ccccc1N=C2c1ccc(C(=O)NO)cc1 [(Z)-N-hydroxy-4-(4-methyldibenzo[b,f][1,4]oxazepin-11-yl)benzamide]",0.05 to 0.1
21,"CCCc1cccc2c1Oc1ccccc1N=C2c1ccc(C(=O)NO)cc1 [(Z)-N-hydroxy-4-(4-propyldibenzo[b,f][1,4]oxazepin-11-yl)benzamide]",0.1 to 1
22,"COCCN1c2ccccc2N=C(c2ccc(C(=O)NO)cc2)c2ccccc21 [(Z)-N-hydroxy-4-(5-(2-methoxyethyl)-5H-dibenzo[b,e][1,4]diazepin-11-yl)benzamide]",0.1 to 1
23,"O=C(NO)c1ccc(C2=Nc3ccccc3N(CCN3CCOCC3)c3ccccc32)cc1 [(Z)-N-hydroxy-4-(5-(2-morpholinoethyl)-5H-dibenzo[b,e][1,4]diazepin-11-yl)benzamide]",0.1 to 1
24,"CC(C)N1c2ccccc2N=C(c2ccc(C(=O)NO)cc2)c2ccccc21 [(Z)-N-hydroxy-4-(5-isopropyl-5H-dibenzo[b,e][1,4]diazepin-11-yl)benzamide]",< 0.05
25,"Cc1cccc2c1Oc1ccccc1C(c1ccc(C(=O)NO)cc1)=N2 [(Z)-N-hydroxy-4-(6-methyldibenzo[b,f][1,4]oxazepin-11-yl)benzamide]",0.1 to 1
26,"O=C(NO)c1ccc(C2=Nc3ccccc3N(CCN3CCOCC3)c3ncccc32)cc1 [(Z)-N-hydroxy-4-(11-(2-morpholinoethyl)-11H-benzo[b]pyrido[2,3-e][1,4]diazepin-5-yl)benzamide]",0.05 to 0.1

# Now from value to molecule:
row,IC50 [µM],Structure (SMILES)
1,0.1 to 1,"O=C(NO)c1ccc(C2=Nc3cc(Cl)ccc3Oc3ccccc32)cc1 [(Z)-4-(8-chlorodibenzo[b,f][1,4]oxazepin-11-yl)-N-hydroxybenzamide]"
2,0.05 to 0.1,"N#Cc1ccc2c(c1)N=C(c1ccc(C(=O)NO)cc1)c1ccccc1O2 [(Z)-4-(8-cyanodibenzo[b,f][1,4]oxazepin-11-yl)-N-hydroxybenzamide]"
3,0.05 to 0.1,"O=C(NO)c1ccc(C2=Nc3c(F)cccc3Oc3ccccc32)cc1 [(Z)-4-(9-fluorodibenzo[b,f][1,4]oxazepin-11-yl)-N-hydroxybenzamide]"
4,< 0.05,"O=C(NO)c1ccc(C2=Nc3ccccc3Oc3ccccc32)cc1 [(Z)-4-(dibenzo[b,f][1,4]oxazepin-11-yl)-N-hydroxybenzamide]"
5,0.05 to 0.1,"O=C(NO)c1ccc(C2=Nc3ccc(C(F)(F)F)nc3Oc3ccccc32)cc1 [(Z)-N-hydroxy-4-(2-(trifluoromethyl)benzo[f]pyrido[2,3-b][1,4]oxazepin-6-yl)benzamide]"
6,0.1 to 1,"COc1ccc2c(c1)C(c1ccc(C(=O)NO)cc1)=Nc1ccccc1O2 [(Z)-N-hydroxy-4-(2-methoxydibenzo[b,f][1,4]oxazepin-11-yl)benzamide]"
7,0.05 to 0.1,"O=C(NO)c1ccc(C2=Nc3ccccc3Oc3cc(C(F)(F)F)ccc32)cc1 [(Z)-N-hydroxy-4-(3-(trifluoromethyl)dibenzo[b,f][1,4]oxazepin-11-yl)benzamide]"
8,0.1 to 1,"COc1ccc2c(c1)Oc1ccccc1N=C2c1ccc(C(=O)NO)cc1 [(Z)-N-hydroxy-4-(3-methoxydibenzo[b,f][1,4]oxazepin-11-yl)benzamide]"
9,< 0.05,"Cc1ccc2c(c1)Oc1ccccc1N=C2c1ccc(C(=O)NO)cc1 [(Z)-N-hydroxy-4-(3-methyldibenzo[b,f][1,4]oxazepin-11-yl)benzamide]"
10,0.1 to 1,"O=C(NO)c1ccc(C2=Nc3ccccc3Oc3c(OC(F)(F)F)cccc32)cc1 [(Z)-N-hydroxy-4-(4-(trifluoromethoxy)dibenzo[b,f][1,4]oxazepin-11-yl)benzamide]"
11,< 0.05,"O=C(NO)c1ccc(C2=Nc3ccccc3Oc3c2cccc3C(F)(F)F)cc1 [(Z)-N-hydroxy-4-(4-(trifluoromethyl)dibenzo[b,f][1,4]oxazepin-11-yl)benzamide]"
12,0.1 to 1,"COc1cccc2c1Oc1ccc(C(F)(F)F)cc1N=C2c1ccc(C(=O)NO)cc1 [(Z)-N-hydroxy-4-(4-methoxy-8-(trifluoromethyl)dibenzo[b,f][1,4]oxazepin-11-yl)benzamide]"
13,0.1 to 1,"O=C(NO)c1ccc(C2=Nc3ccc(C(F)(F)F)cc3Oc3ccccc32)cc1 [(Z)-N-hydroxy-4-(7-(trifluoromethyl)dibenzo[b,f][1,4]oxazepin-11-yl)benzamide]"
14,0.1 to 1,"O=C(NO)c1ccc(C2=Nc3cc(C(F)(F)F)ccc3Oc3ccccc32)cc1 [(Z)-N-hydroxy-4-(8-(trifluoromethyl)dibenzo[b,f][1,4]oxazepin-11-yl)benzamide]"
15,0.05 to 0.1,"Cc1ccc2c(c1)N=C(c1ccc(C(=O)NO)cc1)c1ccccc1O2 [(Z)-N-hydroxy-4-(8-methyldibenzo[b,f][1,4]oxazepin-11-yl)benzamide]"
